Laboratory results published in ChEMBL document CHEMBL1201862, “PubChem BioAssay data set” (2004).
“And” between values parts separate entries of the source, which are not always exact repeats. Equal entries are not always repeated. The source made the active and inactive calls.

What was measured:
[1] = target: T1, Heat shock factor protein 1 (Mus musculus, UniProt P38532); experiment: inhibition of MG132-induced HSE-luciferase signal, confirmation, cell-based, NIH3T3, luminescence, dose retest (AID 2382); format: functional;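 also: NIH3T3 fibroblasts with HSF1-driven luciferase reporter stressed by proteasome inhibitor MG132; luminescence from HSF1-driven luciferase expression after 8 hours of MG132 stress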
T1 sequence (P38532 whole entry): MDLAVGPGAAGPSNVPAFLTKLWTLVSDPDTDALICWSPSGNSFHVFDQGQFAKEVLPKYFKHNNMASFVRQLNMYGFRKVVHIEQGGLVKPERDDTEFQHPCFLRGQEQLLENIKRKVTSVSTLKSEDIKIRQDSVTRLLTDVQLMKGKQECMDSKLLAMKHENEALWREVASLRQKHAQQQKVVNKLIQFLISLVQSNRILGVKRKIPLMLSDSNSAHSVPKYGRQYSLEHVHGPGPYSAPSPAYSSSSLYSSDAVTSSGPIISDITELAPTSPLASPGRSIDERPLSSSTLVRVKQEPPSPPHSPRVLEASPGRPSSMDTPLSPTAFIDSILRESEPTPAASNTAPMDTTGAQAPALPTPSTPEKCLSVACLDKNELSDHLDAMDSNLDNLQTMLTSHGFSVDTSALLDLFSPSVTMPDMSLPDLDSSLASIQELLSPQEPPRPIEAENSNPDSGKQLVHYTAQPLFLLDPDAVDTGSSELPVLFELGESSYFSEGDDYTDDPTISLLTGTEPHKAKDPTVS

Streptococcus = experiment: Group A Streptococcus viability loss, dose response, counter-screen for streptokinase expression inhibitor project, luminescence, BacTiterGlo (AID 1915); format: functional, organism-based;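 also: potency for reduction of bacterial viability or growth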
Streptokinase A = target: T2, Streptokinase A (Streptococcus pyogenes serotype M1, UniProt P10520); experiment: S. pyogenes streptokinase expression inhibitors, potency, dose response, plasminogen activation absorbance, OD405 (AID 1914); format: functional, Streptococcus pyogenes M1 GAS;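 also: secreted streptokinase activity via plasminogen activation per viability signal from cell pellet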
T2 sequence (P10520 whole entry): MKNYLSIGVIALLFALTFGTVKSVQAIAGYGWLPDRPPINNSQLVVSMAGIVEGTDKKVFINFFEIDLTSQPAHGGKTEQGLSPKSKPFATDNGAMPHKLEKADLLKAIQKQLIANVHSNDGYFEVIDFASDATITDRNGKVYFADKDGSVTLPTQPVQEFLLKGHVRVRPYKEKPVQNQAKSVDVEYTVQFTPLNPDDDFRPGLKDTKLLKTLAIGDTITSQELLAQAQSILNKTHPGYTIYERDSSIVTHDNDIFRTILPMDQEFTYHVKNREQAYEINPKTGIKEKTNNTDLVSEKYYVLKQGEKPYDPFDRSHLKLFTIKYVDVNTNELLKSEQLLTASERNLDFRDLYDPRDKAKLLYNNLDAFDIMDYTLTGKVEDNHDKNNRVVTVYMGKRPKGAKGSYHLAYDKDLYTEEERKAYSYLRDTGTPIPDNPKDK

[2] = system: Streptococcus sp. 'group A'; experiment: growth inhibition of control SK(-) GAS strain, dose response, counter-screen for streptokinase expression inhibitor project, luminescence, kanamycin, BacTiterGlo, confirmation (AID 1900); format: functional, organism-based
Cytochrome P450 2D6 = Cytochrome P450 2D6 (Homo sapiens, UniProt P10635);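 also: CYP2D6 member of a cytochrome P450 panel assay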
Chain of Cytochrome P450 2D6 (P10635 whole entry): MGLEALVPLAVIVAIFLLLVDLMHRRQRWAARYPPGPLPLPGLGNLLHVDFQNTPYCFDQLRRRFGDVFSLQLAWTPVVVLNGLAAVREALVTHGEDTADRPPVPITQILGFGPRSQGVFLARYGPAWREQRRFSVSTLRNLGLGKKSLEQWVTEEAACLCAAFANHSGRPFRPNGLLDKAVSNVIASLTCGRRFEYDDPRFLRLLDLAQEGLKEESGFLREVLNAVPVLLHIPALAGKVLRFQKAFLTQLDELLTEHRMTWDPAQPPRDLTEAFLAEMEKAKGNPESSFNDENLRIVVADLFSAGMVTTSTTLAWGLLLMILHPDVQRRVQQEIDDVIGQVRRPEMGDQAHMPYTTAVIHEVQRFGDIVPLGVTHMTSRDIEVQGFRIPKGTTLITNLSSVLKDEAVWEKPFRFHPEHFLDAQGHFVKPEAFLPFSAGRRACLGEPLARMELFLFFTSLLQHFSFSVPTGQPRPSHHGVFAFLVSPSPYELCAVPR

Cytochrome P450 1A2 = target: T3, Cytochrome P450 1A2 (Homo sapiens, UniProt P05177);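 also: PubChem cytochrome P450 panel assay, CYP1A2 panel member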
T3 sequence (P05177 whole entry): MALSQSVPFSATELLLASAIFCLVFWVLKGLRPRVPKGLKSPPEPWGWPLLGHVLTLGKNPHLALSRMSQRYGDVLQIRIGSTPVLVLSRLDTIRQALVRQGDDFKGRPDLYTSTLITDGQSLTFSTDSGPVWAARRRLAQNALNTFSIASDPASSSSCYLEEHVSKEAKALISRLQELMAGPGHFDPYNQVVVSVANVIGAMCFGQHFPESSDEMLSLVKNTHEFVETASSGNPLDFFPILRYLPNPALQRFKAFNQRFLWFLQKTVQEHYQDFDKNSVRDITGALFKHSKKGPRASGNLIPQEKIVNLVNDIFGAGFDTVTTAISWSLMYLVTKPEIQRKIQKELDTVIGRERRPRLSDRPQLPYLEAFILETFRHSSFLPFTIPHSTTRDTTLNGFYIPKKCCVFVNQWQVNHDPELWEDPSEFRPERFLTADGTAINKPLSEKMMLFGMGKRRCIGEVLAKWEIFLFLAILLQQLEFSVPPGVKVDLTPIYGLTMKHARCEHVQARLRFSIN

Cytochrome P450 2C19 = Cytochrome P450 2C19 (Homo sapiens, UniProt P33261); experiment: Cytochrome panel assay with activity outcomes. Panel member name: p450-cyp2c19 Compounds with AC50 equal or less than 10 uM are considered active; format: functional
Chain of Cytochrome P450 2C19 (P33261 whole entry): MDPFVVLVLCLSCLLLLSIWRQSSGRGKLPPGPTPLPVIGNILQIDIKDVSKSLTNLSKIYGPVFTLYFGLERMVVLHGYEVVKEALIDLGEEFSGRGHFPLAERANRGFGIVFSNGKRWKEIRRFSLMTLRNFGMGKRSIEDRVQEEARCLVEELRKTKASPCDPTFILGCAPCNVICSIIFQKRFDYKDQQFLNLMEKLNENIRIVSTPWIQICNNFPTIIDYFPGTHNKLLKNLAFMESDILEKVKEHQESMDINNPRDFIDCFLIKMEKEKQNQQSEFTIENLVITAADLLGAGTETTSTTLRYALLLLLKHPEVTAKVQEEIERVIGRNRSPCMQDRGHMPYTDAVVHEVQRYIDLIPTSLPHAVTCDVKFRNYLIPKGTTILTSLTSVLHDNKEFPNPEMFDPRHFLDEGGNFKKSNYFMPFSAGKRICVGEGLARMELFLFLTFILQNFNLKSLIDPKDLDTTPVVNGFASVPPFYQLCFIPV

Cytochrome P450 3A4 = Cytochrome P450 3A4 (Homo sapiens, UniProt P08684);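 also: CYP3A4 tested as one member of a cytochrome P450 panel screen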
Chain of Cytochrome P450 3A4 (P08684 whole entry): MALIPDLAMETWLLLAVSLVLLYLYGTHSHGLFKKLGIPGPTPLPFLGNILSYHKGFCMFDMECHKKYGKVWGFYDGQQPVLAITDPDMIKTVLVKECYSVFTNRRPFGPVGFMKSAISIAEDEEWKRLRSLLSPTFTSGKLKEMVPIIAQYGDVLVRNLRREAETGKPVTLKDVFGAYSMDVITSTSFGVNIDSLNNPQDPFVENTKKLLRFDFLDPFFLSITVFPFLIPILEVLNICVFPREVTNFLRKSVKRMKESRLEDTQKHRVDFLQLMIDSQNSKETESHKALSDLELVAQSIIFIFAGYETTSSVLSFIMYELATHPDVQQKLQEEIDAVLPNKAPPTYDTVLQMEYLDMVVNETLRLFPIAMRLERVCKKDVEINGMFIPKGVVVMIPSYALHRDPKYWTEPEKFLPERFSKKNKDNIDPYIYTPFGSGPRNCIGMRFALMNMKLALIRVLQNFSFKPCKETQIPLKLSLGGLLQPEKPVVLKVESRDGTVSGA

Cytochrome P450 2C9 = Cytochrome P450 2C9 (Homo sapiens, UniProt P11712)
Chain of Cytochrome P450 2C9 (P11712 whole entry): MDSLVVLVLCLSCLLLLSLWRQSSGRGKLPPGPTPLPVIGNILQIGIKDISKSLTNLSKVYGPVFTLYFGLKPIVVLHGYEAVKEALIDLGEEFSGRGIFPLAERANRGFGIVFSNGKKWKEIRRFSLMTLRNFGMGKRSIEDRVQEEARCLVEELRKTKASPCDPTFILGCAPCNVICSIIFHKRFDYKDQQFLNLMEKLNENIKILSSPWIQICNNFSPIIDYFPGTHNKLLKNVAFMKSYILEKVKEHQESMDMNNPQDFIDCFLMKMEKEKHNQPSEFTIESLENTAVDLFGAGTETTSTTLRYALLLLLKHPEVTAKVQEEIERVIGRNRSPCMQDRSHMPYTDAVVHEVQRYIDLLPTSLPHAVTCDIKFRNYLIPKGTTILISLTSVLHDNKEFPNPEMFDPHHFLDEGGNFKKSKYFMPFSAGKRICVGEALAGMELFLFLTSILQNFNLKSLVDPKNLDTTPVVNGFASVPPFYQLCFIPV

For CCCn1c(SCC(=O)c2c(C)[nH]c(C)c2C(=O)OCC)nc2ccccc21, which EC50 [1] is on record?
The EC50 was > 195 µM (not active).

For Cc1ccc(NC(=S)NC(=O)c2ccc(F)cc2)cc1S(=O)(=O)Nc1cccc(Cl)c1, which EC50 (Streptococcus) is on record?
The EC50 was 54.2 µM (active).

What about the EC50 (Streptokinase A) of the same molecule?
The EC50 was 11.5 µM (active).

What about the EC50 [2] of the same molecule?
Its EC50 is 1.48 µM (active).

CC(C)c1ccc(C(=O)NC(=S)Nc2ccc3[nH]c(=O)[nH]c3c2)cc1 was tested. Which EC50 (Streptokinase A) did it give?
Its EC50 is > 150 µM (not active).

NC(=NNC(=O)c1sccc1OCc1ccc(Cl)cc1Cl)c1ccccn1 was tested. Which EC50 (Streptokinase A) did it give?
Its EC50 is 35.4 µM (active).

For CCOC(=O)c1ccc(Oc2nc(NC)nc(Nc3ccccc3)n2)cc1, which EC50 [1] is on record?
Its EC50 is > 195 µM (not active).

How did the EC50 (Streptococcus) turn out when CN1CCN(NC(=O)Nc2cc(Cl)cc(Cl)c2)CC1 was run?
The EC50 was > 150 µM (not active).

What about the EC50 (Streptokinase A) of the same molecule?
The EC50 was 21.7 µM (active).

What about the EC50 [2] of the same molecule?
Its EC50 is 6.77 µM (active).

For CCc1ccc(/C=C/c2c([N+](=O)[O-])c(=O)n(C)c(=O)n2C)cc1, which EC50 (Streptococcus) is on record?
The EC50 was 18 µM (active).

What about the EC50 (Streptokinase A) of the same molecule?
The EC50 was > 150 µM (not active).

What about the EC50 [2] of the same molecule?
Its EC50 is 4.55 µM (active).

What does the source list for Cc1ccccc1NS(=O)(=O)c1cc(C(=O)Nc2cccc(N(C)S(C)(=O)=O)c2)ccc1C?
AC50 (Cytochrome P450 2D6): 17.8 µM (inconclusive); AC50 (Cytochrome P450 1A2): 17.8 µM (inconclusive)

With CNc1nc(-c2ccccc2C(F)(F)F)nc2ccccc12 as the molecule, how does the AC50 (Cytochrome P450 2D6) read?
Its AC50 is 20 µM (inconclusive).

And the AC50 (Cytochrome P450 2C19; read-out: AC50)?
Its AC50 is 31.6 µM (inconclusive).

Which EC50 [1] does the source give for CCCCC1C(=O)NC(=S)NC1=O here?
The EC50 was > 195 µM (not active).

For COc1ccc(CC(C)Nc2cccc(SC)c2)cc1 (centres undefined), which EC50 [1] is on record?
Its EC50 is > 195 µM (not active).

Which AC50 (Cytochrome P450 3A4) does the source give for CCNc1ncc2nc(-c3cc(F)cc(F)c3)c(=O)n(CCOC)c2n1 here?
The AC50 was 7.94 µM (inconclusive).

For O=C(NCc1cc(F)cc2c1OCCO2)[C@H]1C[C@@H]1[C@H](NP(=O)(c1ccccc1)c1ccccc1)c1ccccc1, which AC50 (Cytochrome P450 3A4) is on record?
Its AC50 is 3.98 µM (inconclusive).

What does the source list for CC(=O)N1CCC2(CCCN(C(c3ccccc3)c3ccccc3)C2)CC1?
AC50 (Cytochrome P450 3A4): 12.6 µM (inconclusive); AC50 (Cytochrome P450 2C9): 31.6 µM (inconclusive)

Which results are given for Oc1ccc(Br)cc1CNn1cnnc1?
AC50 (Cytochrome P450 3A4): 35.5 µM (inconclusive); AC50 (Cytochrome P450 2C9): 17.8 µM (inconclusive); AC50 (Cytochrome P450 1A2): 14.1 µM (inconclusive)

How did the EC50 (Streptokinase A) turn out when Cc1nc(Nc2nc(-c3ccccc3)cc(=O)[nH]2)nc2ccccc12 was run?
Its EC50 is > 150 µM (not active).

Which AC50 (Cytochrome P450 2D6) does the source give for N#Cc1cccc(NC(=O)N2CC3(CCN(C(=O)c4cc(C(F)(F)F)cc(C(F)(F)F)c4)CC3)C2)c1 here?
Its AC50 is 20 µM (inconclusive).

And the AC50 (Cytochrome P450 3A4)?
Its AC50 is 31.6 µM (inconclusive).

How did the EC50 [1] turn out when NC(=S)N/N=C1\CC(n2nnnc2-c2ccccc2Cl)C2COC1O2 (centres undefined) was run?
Its EC50 is > 195 µM (not active).

COCCCNC(=O)CC(NS(=O)(=O)c1ccc(C)cc1)c1ccc(OC)cc1 (centres undefined) was tested. Which EC50 [1] did it give?
Its EC50 is > 195 µM (not active).

With COc1ccc(C(=O)CSc2[nH]c(=O)cc(C(F)(F)F)c2C#N)cc1 as the molecule, how does the EC50 (Streptokinase A) read?
Its EC50 is 8.62 µM (active).

Which AC50 (Cytochrome P450 2D6) does the source give for CN(C)c1ncc2ncc(=O)n(Cc3cccs3)c2n1 here?
The AC50 was 12.6 µM (inconclusive).

And the AC50 (Cytochrome P450 3A4)?
Its AC50 is 15.8 µM (inconclusive).

What about the AC50 (Cytochrome P450 2C9) of the same molecule?
Its AC50 is 39.8 µM (inconclusive).

With O=C(CSc1nc(-c2ccc(Cl)cc2)nc(=O)[nH]1)Nc1cccc(Cl)c1 as the molecule, how does the EC50 (Streptokinase A) read?
The EC50 was 4.65 µM (active).

What does the source list for CCc1c(C(=O)NCc2ccc3c(c2)OCO3)[nH]c(C)c1C(C)=O?
AC50 (Cytochrome P450 2D6): 20 µM (inconclusive); AC50 (Cytochrome P450 2C9): 10 µM (inconclusive)

Which AC50 (Cytochrome P450 3A4) does the source give for Cc1ccc2c(c1)N(CCC(=O)NCCN1CCOCC1)C(=O)CO2 here?
The AC50 was 25.1 µM (inconclusive).

And the AC50 (Cytochrome P450 2C19; read-out: AC50)?
The AC50 was 39.8 µM (inconclusive).

What about the AC50 (Cytochrome P450 2C9) of the same molecule?
Its AC50 is 39.8 µM (inconclusive).

How did the AC50 (Cytochrome P450 2D6) turn out when NCCC(=O)NCCc1c[nH]cn1 [CARCININE] was run?
Its AC50 is 31.6 µM (inconclusive) and 10 µM (inconclusive).

What about the AC50 (Cytochrome P450 2C19) of the same molecule?
Its AC50 is “inconclusive”.

CCC(c1nnnn1CCOC)N1CCN(C(=O)c2ccco2)CC1 (centres undefined) was tested. Which AC50 (Cytochrome P450 3A4) did it give?
The AC50 was 28.2 µM (inconclusive).
